In patent US20230107642A1 (Erasca, Inc., priority 2020, published 2023):

assay: Determination of total drug concentration in rat brain (BBB penetration); assay type: in vivo; details: male SD rat, 2 mg/kg IV infusion for 4 hours, brain collected at end of 4 hours
Description: BB. Example 9: Determination of Total Drug Concentration in Rat Brain
In Vivo Experimental Procedures
Infuse male SD rat at 2 mg/kg dose for 4 hours through IV administration route. Collect brain tissues at the end of 4 hours.
Sample Preparation Procedures
Dilute brain tissue by adding homogenization solvent (1:4, w/v). Homogenize diluted brain tissue samples. Extract analyte by adding organic solvent (1:4, v/v) with spiked internal standard. Vortex and centrifuge the samples. Remove supernatant and dilute with HPLC compatible solvent (1:3, v/v).
Inject diluted extract into LC-MS/MS system using reversed phase high performance liquid chromatography coupled with electrospray ionization and selected reaction monitoring. Determine the total drug concentration in brain samples by quantitating against the standard curve prepared using the same matrix.
The following data provides blood brain barrier (BBB) penetration activity for a selection of inventive compounds where were directly compared to sotorasib and adagrasib (concentration in brain measured in ng/g).
Compounds that were measured as having a total concentration in the brain of at least 60 ng/g are indicated as “+”.

| Compound | BBB activity |
| --- | --- |
| C=CC(=O)N1CCN(c2nc(=O)n3c4c(c(-c5cc(Cl)c(F)cc5F)c(C(F)(F)F)cc24)SC[C@@H]3CN2CCN(C3CC3)CC2)CC1 [Example 13-30] | + (Compounds that were measured as having a total concentration in the brain of at least 60 ng/g are indicated as “+”) |
| C=CC(=O)N1C[C@H](C)N(c2nc(=O)n3c4c(c(-c5cc(Cl)c(F)cc5F)c(C(F)(F)F)cc24)SCC2(COC2)C3)C[C@H]1C [Example 13-31] | + (Compounds that were measured as having a total concentration in the brain of at least 60 ng/g are indicated as “+”) |
| C=CC(=O)N1CC2C(=O)N(C)c3cnc4c(F)c(-c5c(O)cccc5F)c(Cl)cc4c3N2C[C@H]1C (stereo partly drawn) [Example 13-32] | + (Compounds that were measured as having a total concentration in the brain of at least 60 ng/g are indicated as “+”) |
| C=CC(=O)N1CCN(c2nc(=O)n3c4c(c(-c5ccc(F)cc5)c(C(F)(F)F)cc24)SC[C@@H]3CN2CCN(C3CC3)CC2)CC1 [Example 13-33] | + (Compounds that were measured as having a total concentration in the brain of at least 60 ng/g are indicated as “+”) |
| C=CC(=O)N1C[C@H](C)N(c2nc(=O)n3c4c(c(-c5cc(Cl)c(F)cc5F)c(C(F)(F)F)cc24)SCC2(CCOCC2)C3)C[C@H]1C [Example 13-34] | + (Compounds that were measured as having a total concentration in the brain of at least 60 ng/g are indicated as “+”) |
| C=CC(=O)N1CCN(c2nc(=O)n3c4c(c(-c5ccc(F)cc5F)c(C(F)(F)F)cc24)SC[C@@H]3COC)[C@@H](C)C1 [Example 13-35] | + (Compounds that were measured as having a total concentration in the brain of at least 60 ng/g are indicated as “+”) |
| C=CC(=O)N1[C@H](C)CN(c2nc(=O)n3c4c(c(-c5cc(Br)c(F)cc5F)c(C(F)(F)F)cc24)SCC2(COC2)C3)C[C@@H]1C [Example 13-36] | + (Compounds that were measured as having a total concentration in the brain of at least 60 ng/g are indicated as “+”) |
| C=CC(=O)N1CCN(c2nc(=O)n3c4c(c(-c5ccc(F)cc5F)c(C(F)(F)F)cc24)SC[C@H](OC)C3)CC1 [Example 13-37] | + (Compounds that were measured as having a total concentration in the brain of at least 60 ng/g are indicated as “+”) |
| C=CC(=O)N1C[C@H](C)N(c2nc(=O)n3c4c(c(-c5ccc(F)cc5F)c(Cl)cc24)OCC3CN(C)C)C[C@H]1C (stereo partly drawn) [Example 13-38] | + (Compounds that were measured as having a total concentration in the brain of at least 60 ng/g are indicated as “+”) |
| C=CC(=O)N1[C@H](C)CN(c2nc(=O)n3c4c(c(-c5ccc(F)cc5)c(C(F)(F)F)cc24)SC[C@@H](OC)C3)C[C@@H]1C [Example 13-40] | + (Compounds that were measured as having a total concentration in the brain of at least 60 ng/g are indicated as “+”) |
| C=CC(=O)N1[C@H](C)CN(c2nc(=O)n3c4c(c(-c5ccc(F)cc5)c(C(F)(F)F)cc24)SC[C@H](OCC)C3)C[C@@H]1C [Example 13-41] | + (Compounds that were measured as having a total concentration in the brain of at least 60 ng/g are indicated as “+”) |
| C=CC(=O)N1[C@H](C)CN(c2nc(=O)n3c4c(c(-c5cc(Br)c(F)cc5F)c(C(F)(F)F)cc24)SC[C@@H](Oc2cnccn2)C3)C[C@@H]1C [Example 13-42] | + (Compounds that were measured as having a total concentration in the brain of at least 60 ng/g are indicated as “+”) |
| C=CC(=O)N1CCN(c2nc(=O)n3c4c(c(-c5ccc(F)cc5F)c(Cl)cc24)SCC3)[C@@H](C)C1 [Example 13-43] | + (Compounds that were measured as having a total concentration in the brain of at least 60 ng/g are indicated as “+”) |
| C=CC(=O)N1[C@H](C)CN(c2nc(=O)n3c4c(c(-c5cc(Cl)c(F)cc5F)c(C(F)(F)F)cc24)SC[C@@H]3CN2C[C@@H]3C[C@H]2CO3)C[C@@H]1C [Example 13-46] | + (Compounds that were measured as having a total concentration in the brain of at least 60 ng/g are indicated as “+”) |
| C=CC(=O)N1[C@H](C)CN(c2nc(=O)n3c4c(c(-c5ccc(F)cc5)c(C(F)(F)F)cc24)SC[C@H](c2ccccc2)C3)C[C@@H]1C [Example 13-47] | − (Compounds that did not meet this threshold are indicated as “−”) |
| C=CC(=O)N1[C@H](C)CN(c2nc(=O)n3c4c(c(-c5ccc(F)cc5)c(C(F)(F)F)cc24)SC[C@@H](OCC2CC2)C3)C[C@@H]1C [Example 13-48] | − (Compounds that did not meet this threshold are indicated as “−”) |
| C=CC(=O)N1[C@H](C)CN(c2nc(=O)n3c4c(c(-c5cc(Cl)c(F)cc5F)c(C(F)(F)F)cc24)SC[C@@H]3COCOC)C[C@@H]1C [Example 13-50] | − (Compounds that did not meet this threshold are indicated as “−”) |
| C=CC(=O)N1C[C@H](C)N(c2nc(=O)n3c4c(c(-c5ccc(F)cc5F)c(C(F)(F)F)cc24)SCC2(COC2)C3)C[C@H]1C [Example 13-51] | − (Compounds that did not meet this threshold are indicated as “−”) |

| Compound | BBB activity |
| --- | --- |
| C=CC(=O)N1C[C@H](C)N(c2nc(=O)n3c4c(c(-c5ccc(F)cc5)c(Cl)cc24)OCC3CN(C)C)C[C@H]1C (stereo partly drawn) [Example 13-53] | − (Compounds that did not meet this threshold are indicated as “−”) |
| [2H]C1([2H])N(C(=O)C=C)C([2H])([2H])C([2H])([2H])N(c2nc(=O)n3c4c(c(-c5cc(Cl)c(F)cc5F)c(C(F)(F)F)cc24)SCC2(COC2)C3)C1([2H])[2H] [Example 13-54] | − (Compounds that did not meet this threshold are indicated as “−”) |
| C=CC(=O)N1[C@H](C)CN(c2nc(=O)n3c4c(c(-c5ccc(F)cc5)c(C(F)(F)F)cc24)SC[C@@H](OCC)C3)C[C@@H]1C [Example 13-55] | − (Compounds that did not meet this threshold are indicated as “−”) |
| C=CC(=O)N1C[C@H](C)N(c2nc(=O)n3c4c(c(-c5cc(Cl)c(F)cc5F)c(Cl)cc24)SC[C@@H]3CN2CCN(CC(F)F)CC2)C[C@H]1C [Example 13-56] | − (Compounds that did not meet this threshold are indicated as “−”) |
| C=CC(=O)N1C[C@H](C)N(c2nc(=O)n3c4c(c(-c5cc(F)c(F)cc5F)c(C(F)(F)F)cc24)SC[C@@H]3CN2CCN(CC(F)F)CC2)C[C@H]1C [Example 13-57] | − (Compounds that did not meet this threshold are indicated as “−”) |
| C=CC(=O)N1C[C@H](C)N(c2nc(=O)n3c4c(c(-c5ccc(F)cc5F)c(Cl)cc24)OC[C@H]3CC2CCN(CC(F)F)CC2)C[C@H]1C [Example 13-59] | − (Compounds that did not meet this threshold are indicated as “−”) |
| C=CC(=O)N1CCN(c2nc(=O)n3c4c(c(-c5ccc(F)cc5F)c(Cl)cc24)SCCC3)[C@@H](C)C1 [Example 13-61] | − (Compounds that did not meet this threshold are indicated as “−”) |
| C=CC(=O)N1[C@H](C)CN(c2nc(=O)n3c4c(c(-c5cc(Cl)c(F)cc5F)c(C(F)(F)F)cc24)CC[C@@H]3CC2CCC3(CC2)COC3)C[C@@H]1C [Example 13-63] | − (Compounds that did not meet this threshold are indicated as “−”) |
| C=CC(=O)N1[C@H](C)CN(c2nc(=O)n3c4c(c(-c5ccc(F)cc5)c(C(F)(F)F)cc24)SC[C@@H](OCCF)C3)C[C@@H]1C [Example 13-64] | − (Compounds that did not meet this threshold are indicated as “−”) |
| C=CC(=O)N1[C@H](C)CN(c2nc(=O)n3c4c(c(-c5ccc(F)cc5)c(C(F)(F)F)cc24)SC[C@@H](COC)C3)C[C@@H]1C [Example 13-65] | − (Compounds that did not meet this threshold are indicated as “−”) |
| C=CC(=O)C1[C@H](C)CN(c2nc(=O)n3c4c(c(-c5ccc(F)cc5)c(C(F)(F)F)cc24)SC[C@@H](OC)C3)C[C@@H]1C (stereo partly drawn) [Example 13-66] | − (Compounds that did not meet this threshold are indicated as “−”) |
| C=CC(=O)N1CCN(c2nc(=O)n3c4c(c(-c5c(F)cc(F)c6ccccc56)c(Cl)cc24)SCC3)[C@@H](C)C1 [Example 13-67] | − (Compounds that did not meet this threshold are indicated as “−”) |
| C=CC(=O)N1[C@H](C)CN(c2nc(=O)n3c4c(c(-c5ccc(F)c6sccc56)c(C(F)(F)F)cc24)SC[C@@H]3COC)C[C@@H]1C [Example 13-68] | − (Compounds that did not meet this threshold are indicated as “−”) |
| C=CC(=O)N1[C@H](C)CN(c2nc(=O)n3c4c(c(-c5ccc(F)cc5)c(Cl)cc24)SC[C@@H](OC)C3)C[C@@H]1C [Example 13-69] | − (Compounds that did not meet this threshold are indicated as “−”) |
| C=CC(=O)N1[C@H](C)CN(c2nc(=O)n3c4c(c(-c5ccc(F)cc5F)c(C(F)(F)F)cc24)SC[C@@H](OC)C3)C[C@@H]1C [Example 13-72] | − (Compounds that did not meet this threshold are indicated as “−”) |
| C=CC(=O)N1C[C@H](C)N(c2nc(=O)n3c4c(c(-c5cc(Cl)c(F)cc5F)c(C(F)(F)F)cc24)CC[C@@H]3CN2CCC3(CC2)COC3)C[C@H]1C [Example 13-74] | − (Compounds that did not meet this threshold are indicated as “−”) |
| C=C(F)C(=O)N1CCN(c2nc(OC[C@H]3CCCN3C)nc3c2CCN(c2cccc4cccc(Cl)c24)C3)C[C@@H]1CC#N [Example 13-75] | − (Compounds that did not meet this threshold are indicated as “−”) |
| C=CC(=O)N1C[C@H](C)N(c2nc(=O)n3c4c(c(-c5ccc(F)cc5F)c(Cl)cc24)OC[C@H]3CCCN2C[C@H]3C[C@@H]2CO3)C[C@H]1C [Example 13-76] | − (Compounds that did not meet this threshold are indicated as “−”) |
